Experimental data published in PMC10802969, “Host-defense piscidin peptides as antibiotic adjuvants against Clostridioides difficile” (PLOS ONE, 2024).
Where “and” joins values, the source holds several entries; their conditions need not be identical. Equal entries are not always repeated. Where two headings read alike, the source gives them in different places.

Columns and labels:
C. difficile R20291 [1] = details: previously observed / recorded values, ref 76 (vancomycin, fidaxomicin), ref 10 (metronidazole), cited from earlier work
[2] = tested on: C. difficile R20291 vegetative cells; test: Enumeration of colony forming units after overnight exposure; type: cell-based, Clostridioides difficile; details: sub-lethal piscidins (2 μM p1/p1-Cu2+ or 4 μM p3/p3-Cu2+) with sub-lethal antibiotic, 16 h exposure
Procedure: 200 μL samples of BHIS broth containing the indicated concentrations of antibiotics and/or piscidins were inoculated using a 1:10 ratio, in 96 well plates, with exponentially growing C. difficile R20291 cells and incubated for 16 h at 37°C. Samples were spread as duplicates on BHIS agar plates containing 20 μg/mL erythromycin. These plates were incubated anaerobically at 37°C for 48 h before the viable colonies were counted.

C. difficile R20291 [3] = test: Growth inhibition assay (16 h overnight growth, culture density at 630 nm); type: cell-based, Clostridioides difficile; details: for Concentration of antibiotic necessary to suppress 16-hour growth of C. difficile: >=90% inhibition of overnight growth vs untreated, R20291, anaerobic 37°C, n>=3
Procedure: Two-fold serial dilutions of BHIS media containing the indicated concentrations of antibiotics were prepared in sterile 96 well plates (ThermoFisher Scientific). […] Inoculated plates were incubated anaerobically at 37°C for 16 h and then removed from the chamber. […] All experiments were performed with a minimum of three samples, and the means and standard deviations were reported. To analyze the effects of the antibiotics, samples containing peptides and antibiotics were compared to samples containing only peptides by two-way analysis of variance using GraphPad Prism 6.

C. difficile cells [4] = test: Transmission electron microscopy of cell envelope damage and lysis; type: cell-based, Clostridioides difficile; details: 5 min treatment, TEM
Procedure: Overnight cultures were prepared by inoculating individual colonies into 3 mL BHIS broth and grown for 14–16 h at 37°C in the anaerobic chamber. The overnight cultures were diluted 1:20 into 4 mL BHIS broth and the cultures were grown until they reached exponential phase (OD600 0.4–0.6). […] After treatment, the samples were transferred to 2 mL Eppendorf tubes and centrifuged for 2 minutes to collect the pellets. The pellets were individually suspended in 1 mL of 1X phosphate-buffered saline solution with 4% paraformaldehyde, prepared as described in [75]. The samples were fixed in the anaerobic chamber for 45 min. After fixation, the eppendorf tubes were removed from the chamber and the exteriors were sterilized with SporGon (Thomas Scientific), 10% bleach, and 70% ethanol (VWR). Samples were incubated on 200 mesh formvar-coated copper grids (Electron Microscopy Sciences, Hatfield, PA) that were glow-discharged. Grids were washed with water, incubated with 2% uranyl acetate, washed with water, dried overnight at room temperature, and imaged using a JEM-2100F TEM (JEOL, Akishima, Japan) at a voltage of 200 kV and using a Gatan OneView camera. The percentage of lysed cells in each condition and the standard error of each condition were compared using the Wilson confidence interval.

C. difficile cells [5] = test: Propidium iodide uptake assay (live cell microscopy); type: cell-based, Clostridioides difficile; details: 20 μg/mL PI; 4 μM p1/p1Cu, 8 μM p3/p3Cu; apo 30 min, metalated 10 min; anaerobic 37°C; qualitative microscopy
Procedure: Samples containing apo-peptides and metalated peptides were incubated for 30 min and 10 min, respectively. After incubation, cells were centrifuged at 704 rfc for 5 minutes and resuspended in 1.5 mL fresh BHIS broth. Negative controls were incubated with PI for 10 or 30 minutes but contained no piscidin. Positive controls were removed from the anaerobic chamber and incubated aerobically for 1 h at room temperature with propidium iodine and 50% ethanol. Within the anaerobic chamber, samples were injected into rose chambers for microscopic imaging as detailed in [53]. The rose chambers were removed from the anaerobic chamber and the outsides were sterilized with 70% ethanol and 10% bleach. […] Samples were imaged with time-lapse differential interference contrast (DIC) microscopy and propidium iodide was monitored at excitation/emission wavelengths of 535/617 nm.

[6] = tested on: C. difficile R20291 spores; test: Spore viability assay; type: cell-based, Clostridioides difficile; details: 16 h, 37°C; for Viable colonies from spores after peptide exposure (spore data): spores in PBS, plated with 0.1% taurocholic acid, individual samples, S6 File; for Viability of dormant C. difficile spores: peptide at or above the concentrations necessary to kill vegetative cells (4/8 μM p1, 8/15 μM p3)
Procedure: To isolate spores, exponentially growing C. difficile R20291 was inoculated 1:10 into 50 mL of BHIS broth and grown anaerobically at 37°C for 16 h. This culture was removed from anaerobic chamber and ethanol was added to a final concentration of 50%. The sample was rocked aerobically for 6 h. The absence of viable vegetative cells was confirmed by spreading volumes up to 1 mL on BHIS plates and incubating anaerobically for 48 h. […] Peptides were tested at final concentrations corresponding to 1X and 2X their previously observed inhibitory concentrations. All the samples were incubated in the chamber at 37°C for 16 hrs. After incubation, 50 μL aliquots of each sample were plated in triplicate on BHIS plates containing 20 μg/mL erythromycin and 0.1% taurocholic acid agar plates to induce germination. An additional 50 μL aliquot was plated on BHIS containing 20 μg/mL erythromycin to ensure that there was no contamination with vegetative cells. The plates were incubated in the chamber at 37°C for 48 h before the viable colonies were counted.

C. difficile = details: in vitro, anaerobic; cited from earlier work
Description: These antibiotics target different cellular components, providing us with a way to identify whether increased efficacy relies on specific mechanistic aspects of the antibiotics and peptides. We tested this by inoculating C. difficile R20291 into media co ...

[7] = with 2 μM p1 and 4 μM p3 combined
[8] = 0.5 μg/mL vancomycin, 4 μM p1-Cu2+, or both

| Molecule | Concentration of antibiotic necessary to suppress 16-hour growth of C. difficile, no peptide (C. difficile R20291 [1]) [µg/mL] | Number of viable cells after co-treatment [2] | Concentration of antibiotic necessary to suppress 16-hour growth of C. difficile (C. difficile R20291 [3]; with 2 μM p1) [µg/mL] | Concentration of antibiotic necessary to suppress 16-hour growth of C. difficile (C. difficile R20291 [3]; with 2 μM p1Cu) [µg/mL] | Concentration of antibiotic necessary to suppress 16-hour growth of C. difficile (C. difficile R20291 [3]; [7]) [µg/mL] | Concentration of antibiotic necessary to suppress 16-hour growth of C. difficile (C. difficile R20291 [3]; with 4 μM p3) [µg/mL] | Concentration of antibiotic necessary to suppress 16-hour growth of C. difficile (C. difficile R20291 [3]; with 4 μM p3Cu) [µg/mL] | Propidium iodide uptake by live C. difficile cells (C. difficile cells [5]) | Viable colonies from spores after peptide exposure (spore data) ([6]; 1X MIC (4 μM p1, 8 μM p3)) | Viable colonies from spores after peptide exposure (spore data) ([6]; 2X MIC (8 μM p1, 15 μM p3)) | Viability of dormant C. difficile spores [6] | Concentration that inhibits growth and kills exponentially growing C. difficile (C. difficile) [µM] | further results |
| --- | --- | --- | --- | --- | --- | --- | --- | --- | --- | --- | --- | --- | --- |
| O=C(O)c1cn(C2CC2)c2cc(N3CCNCC3)c(F)cc2c1=O [Ciprofloxacin, ciprofloxacin] | > 128 |  |  |  |  |  |  |  |  |  |  |  |  |
| CCc1c(Cl)c(O)c(Cl)c(O)c1C(=O)O[C@H]1[C@H](O)[C@H](OC)[C@H](OC/C2=C\C=C\C[C@H](O)/C(C)=C/[C@H](CC)[C@@H](O[C@@H]3OC(C)(C)[C@@H](OC(=O)C(C)C)[C@H](O)[C@@H]3O)/C(C)=C/C(C)=C/C[C@@H]([C@@H](C)O)OC2=O)O[C@@H]1C [Fidaxomicin, fidaxomicin] | 0.256 | further reduced the number of viable cells | 0.0500 | 0.0125 | 0.00625 | 0.050 | >0.100 |  |  |  |  |  | Fold improvement of effective antibiotic concentration (C. difficile R20291 [3]; with 2 μM p1-Cu2+ vs no peptide): 20 fold; Concentration of antibiotic necessary to suppress 16-hour growth of C. difficile (C. difficile R20291 [3]; with 2 μM p1, listed as fidaxomicin): 0.05 µg/mL; Fold improvement of effective antibiotic concentration (C. difficile R20291 [3]; with 2 μM p1 and 4 μM p3 combined vs no peptide): 40 fold; Fold improvement of effective antibiotic concentration (C. difficile R20291 [3]; with 2 μM p1 vs no peptide): 5 fold; Concentration of antibiotic necessary to suppress 16-hour growth of C. difficile (C. difficile R20291 [3]; with 4 μM p3Cu, listed as fidaxomicin): > 0.1 µg/mL |
| Cc1ncc([N+](=O)[O-])n1CCO [Metronidazole, metronidazole] | 2.000 | further reduced the number of viable cells | 0.500 | 1.0000 |  | 0.0625 | 1.000 |  |  |  |  |  | Concentration of antibiotic necessary to suppress 16-hour growth of C. difficile (C. difficile R20291 [3]; with 2 μM p1, listed as metronidazole): 0.5 µg/mL; Concentration of antibiotic necessary to suppress 16-hour growth of C. difficile (C. difficile R20291 [3]; with 2 μM p1Cu, listed as metronidazole): 1 µg/mL; Concentration of antibiotic necessary to suppress 16-hour growth of C. difficile (C. difficile R20291 [3]; with 4 μM p3Cu, listed as metronidazole): 1 µg/mL; Concentration of antibiotic necessary to suppress 16-hour growth of C. difficile, no peptide (C. difficile R20291 [1]; listed as metronidazole): 2 µg/mL |
| CN[C@H](CC(C)C)C(=O)N[C@H]1C(=O)N[C@@H](CC(N)=O)C(=O)N[C@H]2C(=O)N[C@H]3C(=O)N[C@H](C(=O)N[C@H](C(=O)O)c4cc(O)cc(O)c4-c4cc3ccc4O)[C@H](O)c3ccc(c(Cl)c3)Oc3cc2cc(c3O[C@@H]2O[C@H](CO)[C@@H](O)[C@H](O)[C@H]2O[C@H]2C[C@](C)(N)[C@H](O)[C@H](C)O2)Oc2ccc(cc2Cl)[C@H]1O [Vancomycin, vancomycin] | 4.000 | further reduced the number of viable cells | 2.000 | 0.0625 | 0.125 | 0.500 | 0.250 |  |  |  |  |  | Number of cells with cytoplasm / membrane leakage (C. difficile cells [4]; 0.5 μg/mL vancomycin (22 cells observed) or 4 μM p1-Cu2+ (14 cells observed)): 8; Number of lysed cells (severe to complete cell lysis) (C. difficile cells [4]; 0.5 μg/mL vancomycin (of 22 cells), 4 μM p1-Cu2+ (of 14), both (of 19)): 0; Proportion of lysed cells ("percentage") (C. difficile cells [4]; [8]): 0; Wilson estimate of proportion of lysed cells (C. difficile cells [4]; [8]): 0.07692; Concentration of antibiotic necessary to suppress 16-hour growth of C. difficile (C. difficile R20291 [3]; with 2 μM p1, listed as vancomycin): 2 µg/mL; Concentration of antibiotic necessary to suppress 16-hour growth of C. difficile (C. difficile R20291 [3]; with 4 μM p3, listed as vancomycin): 0.5 µg/mL; Concentration of antibiotic necessary to suppress 16-hour growth of C. difficile (C. difficile R20291 [3]; with 4 μM p3Cu, listed as vancomycin): 0.25 µg/mL; Concentration of antibiotic necessary to suppress 16-hour growth of C. difficile, no peptide (C. difficile R20291 [1]; listed as vancomycin): 4 µg/mL |
| Piscidin 1 [p1] |  |  |  |  |  |  |  | did not visibly increase PI uptake | 10100 and 12400 and 9560 and 8440 and 7400 and 9040 | 9320 and 11000 and 9200 and 8240 and 10000 and 9120 | do not affect the viability | 4 |  |
| Piscidin 3 [p3] |  |  |  |  |  |  |  | did not visibly increase PI uptake | 8760 and 8840 and 10100 and 7960 and 8080 and 8480 | 8120 and 7200 and 9000 and 8280 and 10200 and 11400 | do not affect the viability | 8 |  |
